Experimental data reported in patent US20230192765A1, “PEPTIDES TARGETING SHP2 AND USES THEREOF” (UNIVERSITÀ DEGLI STUDI DI ROMA "TOR VERGATA", priority 2020, published 2023).
Where two headings read alike, the source gives them in different places. Primed or numbered codes have the meaning given here. [ ]: non-standard residue; d: D form. 5,6‑carboxyfluorescein″ = CF is 5,6 carboxyfluorescein; pY = N[C@@H](Cc1ccc(OP(=O)(O)O)cc1)C(=O)O

Legend:
[1] = tested on: NIH3T3 cells; assay: Cell uptake experiments (FACS); type: cell-based; conditions: TAT linked to the C-terminus
Description: Cell uptake experiments were performed on NIH3T3 cells. About 200,000 cells were seeded on six-well plates and cultured in Dulbecco’s modified Eagle’s medium supplemented with 10% heat-inactivated fetal bovine serum (Gibco) and 1 % penicillin-streptomycin, at 37° C. with 5% CO2.
Two different strategies were followed. In a first set of experiments, the fluorescent peptide has been incubated with the cell-penetrating peptide (CPP) Pep-1. A Pep-1 stock solution was prepared by dissolving the peptide in ultrapure water. The fluorescent peptide was diluted in PBS from the DMSO stock solution. The peptides were mixed and incubated for 30 minutes at room temperature in a final volume of 400 µl. The conditions for cell delivery were optimized by investigating different cargo to CPP ratios. The mixture was then added to the cells, washed with PBS, together with 600 µl of serum-free medium (volumes for one well are reported). After one hour, 10% of fetal bovine serum (FBS) was added.
(§1) Cells were incubated for different times and then washed, collected and stained with SYTOX blue (1 mM, Invitrogen™) to identify the viable population and the green fluorescence of CFP9W5 was recordered to measure peptide uptake. Data were analysed with Kaluza Analysis Software (Beckman Coulter).
A second set of measurement was carried out using the TAT-conjugated peptide analog. […]

[2] = tested on: NIH3T3 cells; assay: Peptide toxicity in the cell uptake experiments (Sytox); type: cell-based; conditions: all the concentrations tested
Description: Cell viability in the FACS experiment was determined by using Sytox fluorescence.
as §1

[3] = tested on: pathogenic variants of SHP2; conditions: literature [Sun 2018; LaRochelle 2018]; cited from earlier work
[4] = Peptide stability in DMEM; type: in vitro ADME; conditions: three days
Description: (§2) The peptides were dissolved in DMSO (C=5 mg/mL). In eppendorf tubes, 1 mL of HEPES buffer (C = 25 mM, pH = 7.6) was temperature equilibrated at 37° C. before adding 250 µL of human serum and 20 µL of peptide solution; the reaction was followed for 90 minutes. At fixed intervals, 100 µL of the solution were withdrawn and added to 200 µL of absolute ethanol. These samples were kept on ice for 15 minutes, then centrifuged at 13,000 rpm for 5 minutes; the supernatant solutions were analyzed by HPLC and HPLC-MS with 20-60% B gradient in 20 minutes to follow the reaction. In parallel, samples containing peptide, buffer and ethanol only were also analyzed, too. A degradation resistance test was also conducted in DMEM (Dulbecco’s Modified Eagle Medium). The experimental conditions are similar to those described above; the reaction was followed for 72 hours. The enzymatic degradation resistance tests were followed by HPLC using a 5-50% B gradient in 20 minutes.

[5] = tested on: zebrafish embryos injected with Shp2a-WT mRNA; assay: In vivo zebrafish experiments, Shp2a-WT embryos
Description: (§3) One cell stage zebrafish embryos were injected with a mixture of 120 ng/µl of mRNA encoding either GFP-2A-Shp2-D61G or GFP-2A-Shp2-wt (as a control), with or without OP, at 0.3 µM, 3 µM and 5 µM concentration. Embryos were selected based on proper GFP expression and imaged at 11 hours post fertilization (hpf) in their lateral position using the Leica M165 FC stereomicroscope. Images were analyzed using ImageJ [Schneider 2012], by measuring the ratio of the major and minor axis from a minimum of 31 embryos. Statistical analysis was performed in GraphPad Prism, using the analysis of variance (ANOVA) complemented by Tukey’s honest significant difference test (Tukey’s HSD). To measure the survival of injected embryos, a minimum of 48 embryos per group were grown up to 4 days post fertilization (dpf) and counted at 1 dpf and 4 dpf. Survival curves were plotted using GraphPad Prism, and the differences between samples were determined using the Log-rank (Mantel-Cox) test.

[6] = type: in vitro ADME; conditions: human serum, up to 90 minutes, 37° C.
Description: as §2

[7] = tested on: zebrafish embryos injected with Shp2a-D61G mRNA; assay: In vivo zebrafish rescue experiments, Shp2a-D61G embryos
Description: as §3

## CF-GLN-pY-IDLDW-GRKKRRQRRR ({5,6‑carboxyfluorescein″}-GLN[pY]IDLDWGRKKRRQRRR-NH2) [CF-P9W5-TAT]
[1]
  cell uptake, covalent strategy: efficiently obtained
[2]
  cell killing: did not cause any cell killing

## CC1(N)CCN(c2cnc(-c3cccc(Cl)c3Cl)c(N)n2)CC1 [SHP099]
[3]
  activity in pathogenic variants of SHP2: significantly impaired activity

## CC[C@H](C)[C@H](NC(=O)[C@H](Cc1ccc(C(F)(F)P(=O)(O)O)cc1)NC(=O)[C@H](CC(N)=O)NC(=O)[C@H](CC(C)C)NC(=O)CNC(C)=O)C(=O)N[C@@H](CC(=O)O)C(=O)N[C@@H](CC(C)C)C(=O)N[C@@H](CC(=O)O)C(=O)N[C@@H](Cc1c[nH]c2ccccc12)C(N)=O [Peptide P9ND0W5, GLN-F2Pmp-IDLDW]
[4]
  degradation (HPLC): No significant degradation
[5]; co-injection of 3 µM
  lethality of embryos: not affected
[5]; co-injection with 3 µM peptide
  embryo shape at 11 hpf: no impact on their shape
[6]
  degradation (HPLC): No significant degradation
[7]; 5 µM peptide
  rescue of the gastrulation phenotype: significant
[7]; co-injection 0.3 µM, 3 µM and 5 µM, counted 1 dpf and 4 dpf
  survival of embryos: significant and dose dependent improvement
